# Assay results: paper PMC5666424, “Marine-Derived 2-Aminoimidazolone Alkaloids. Leucettamine B-Related Polyandrocarpamines Inhibit Mammalian and Protozoan DYRK & CLK Kinases” (Marine Drugs, 2017)
# Experiments:
# Experiment in all cases: KinomeScan
# Format in all cases: binding
# Details in all cases: 1 μM
# DRAK2 = target: T1, DRAK2 (Homo sapiens, UniProt O94768)
# T1 construct: purchased DiscoverX (KINOMEscan)
# MST3 = target: T2, MST3 (Homo sapiens, UniProt Q9Y6E0)
# T2 construct: purchased DiscoverX (KINOMEscan)
# CDK2 = target: T3, CDK2 (Homo sapiens, UniProt P24941)
# T3 construct: purchased DiscoverX (KINOMEscan)
# SYK = target: T4, SYK (Homo sapiens, UniProt P43405)
# T4 construct: purchased DiscoverX (KINOMEscan)
# BRAF(V600E) = target: T5, BRAF(V600E) (Homo sapiens, UniProt P15056, V600E)
# T5 construct: purchased DiscoverX (KINOMEscan)
# LYN = target: T6, LYN (Homo sapiens, UniProt P07948)
# T6 construct: purchased DiscoverX (KINOMEscan)
# CTK = target: T7, CTK (Homo sapiens, UniProt P42679)
# T7 construct: purchased DiscoverX (KINOMEscan)
# CAMK1 = target: T8, CAMK1 (Homo sapiens, UniProt Q14012)
# T8 construct: purchased DiscoverX (KINOMEscan)
# MAST1 = target: T9, MAST1 (Homo sapiens, UniProt Q9Y2H9)
# T9 construct: purchased DiscoverX (KINOMEscan)
# [1] = target: T10, ABL1(F317L)-nonphosphorylated (Homo sapiens, UniProt P00519, F317L)
# T10 construct: purchased DiscoverX (KINOMEscan)
# MAK = target: T11, MAK (Homo sapiens, UniProt P20794)
# T11 construct: purchased DiscoverX (KINOMEscan)
# T11 sequence (P20794 whole entry): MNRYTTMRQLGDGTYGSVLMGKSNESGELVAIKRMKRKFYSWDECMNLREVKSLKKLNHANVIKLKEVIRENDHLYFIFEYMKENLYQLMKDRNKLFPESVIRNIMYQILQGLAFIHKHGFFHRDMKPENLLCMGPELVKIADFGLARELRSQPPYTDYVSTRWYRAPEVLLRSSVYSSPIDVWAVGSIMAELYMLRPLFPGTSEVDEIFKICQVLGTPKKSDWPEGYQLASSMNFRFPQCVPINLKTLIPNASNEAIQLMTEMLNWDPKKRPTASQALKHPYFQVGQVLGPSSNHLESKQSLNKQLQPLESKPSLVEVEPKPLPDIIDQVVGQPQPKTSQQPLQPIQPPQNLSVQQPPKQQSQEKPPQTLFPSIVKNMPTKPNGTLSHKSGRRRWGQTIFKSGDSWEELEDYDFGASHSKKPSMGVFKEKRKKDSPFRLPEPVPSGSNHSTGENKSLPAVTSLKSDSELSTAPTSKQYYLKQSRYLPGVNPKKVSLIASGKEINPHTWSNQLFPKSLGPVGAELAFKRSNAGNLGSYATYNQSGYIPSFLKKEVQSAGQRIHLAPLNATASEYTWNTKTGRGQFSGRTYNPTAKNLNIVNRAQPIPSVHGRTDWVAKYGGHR
# EGFR(E746-A750del) = target: T12, EGFR(E746-A750del) (Homo sapiens, UniProt P00533, DEL746-750)
# T12 construct: purchased DiscoverX (KINOMEscan)
# CSNK1G3 = target: T13, CSNK1G3 (Homo sapiens, UniProt Q9Y6M4)
# T13 construct: purchased DiscoverX (KINOMEscan)
# T13 sequence (Q9Y6M4 whole entry): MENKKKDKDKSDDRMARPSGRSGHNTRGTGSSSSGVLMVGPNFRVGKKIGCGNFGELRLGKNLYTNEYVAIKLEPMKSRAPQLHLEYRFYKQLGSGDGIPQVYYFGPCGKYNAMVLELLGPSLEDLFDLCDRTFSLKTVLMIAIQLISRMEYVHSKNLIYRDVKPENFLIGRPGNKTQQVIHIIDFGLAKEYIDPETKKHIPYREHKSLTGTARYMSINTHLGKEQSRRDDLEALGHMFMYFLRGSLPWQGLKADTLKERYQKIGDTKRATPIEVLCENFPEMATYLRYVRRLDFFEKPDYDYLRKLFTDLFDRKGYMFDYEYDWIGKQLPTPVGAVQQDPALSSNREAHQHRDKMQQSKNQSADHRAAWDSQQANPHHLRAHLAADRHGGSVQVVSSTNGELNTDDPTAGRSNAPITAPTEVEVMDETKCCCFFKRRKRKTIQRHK
# ERN1 = target: T14, ERN1 (Homo sapiens, UniProt O75460)
# T14 construct: purchased DiscoverX (KINOMEscan)
# MTOR = target: T15, MTOR (Homo sapiens, UniProt P42345)
# T15 construct: purchased DiscoverX (KINOMEscan)
# DMPK = target: T16, DMPK (Homo sapiens, UniProt Q09013)
# T16 construct: purchased DiscoverX (KINOMEscan)
# GCN2(Kin.Dom.2,S808G) = target: T17, GCN2(Kin.Dom.2,S808G) (Homo sapiens, UniProt Q9P2K8, S808G)
# T17 construct: GCN2(Kin.Dom.2,S808G); purchased DiscoverX (KINOMEscan)
# EPHA8 = target: T18, EPHA8 (Homo sapiens, UniProt P29322)
# T18 construct: purchased DiscoverX (KINOMEscan)
# [2] = target: T19, ABL1(Q252H)-phosphorylated (Homo sapiens, UniProt P00519, Q252H)
# T19 construct: purchased DiscoverX (KINOMEscan)
# DMPK2 = target: T20, DMPK2 (Homo sapiens, UniProt Q6DT37)
# T20 construct: purchased DiscoverX (KINOMEscan)
# ACVR2A = target: T21, ACVR2A (Homo sapiens, UniProt P27037)
# T21 construct: purchased DiscoverX (KINOMEscan)
# LRRK2(G2019S) = target: T22, LRRK2(G2019S) (Homo sapiens, UniProt Q5S007, G2019S)
# T22 construct: purchased DiscoverX (KINOMEscan)
# ADCK3 = target: T23, ADCK3 (Homo sapiens, UniProt Q8NI60)
# T23 construct: purchased DiscoverX (KINOMEscan)
# AAK1 = target: T24, AAK1 (Homo sapiens, UniProt Q2M2I8)
# T24 construct: purchased DiscoverX (KINOMEscan)
# T24 sequence (Q2M2I8 whole entry): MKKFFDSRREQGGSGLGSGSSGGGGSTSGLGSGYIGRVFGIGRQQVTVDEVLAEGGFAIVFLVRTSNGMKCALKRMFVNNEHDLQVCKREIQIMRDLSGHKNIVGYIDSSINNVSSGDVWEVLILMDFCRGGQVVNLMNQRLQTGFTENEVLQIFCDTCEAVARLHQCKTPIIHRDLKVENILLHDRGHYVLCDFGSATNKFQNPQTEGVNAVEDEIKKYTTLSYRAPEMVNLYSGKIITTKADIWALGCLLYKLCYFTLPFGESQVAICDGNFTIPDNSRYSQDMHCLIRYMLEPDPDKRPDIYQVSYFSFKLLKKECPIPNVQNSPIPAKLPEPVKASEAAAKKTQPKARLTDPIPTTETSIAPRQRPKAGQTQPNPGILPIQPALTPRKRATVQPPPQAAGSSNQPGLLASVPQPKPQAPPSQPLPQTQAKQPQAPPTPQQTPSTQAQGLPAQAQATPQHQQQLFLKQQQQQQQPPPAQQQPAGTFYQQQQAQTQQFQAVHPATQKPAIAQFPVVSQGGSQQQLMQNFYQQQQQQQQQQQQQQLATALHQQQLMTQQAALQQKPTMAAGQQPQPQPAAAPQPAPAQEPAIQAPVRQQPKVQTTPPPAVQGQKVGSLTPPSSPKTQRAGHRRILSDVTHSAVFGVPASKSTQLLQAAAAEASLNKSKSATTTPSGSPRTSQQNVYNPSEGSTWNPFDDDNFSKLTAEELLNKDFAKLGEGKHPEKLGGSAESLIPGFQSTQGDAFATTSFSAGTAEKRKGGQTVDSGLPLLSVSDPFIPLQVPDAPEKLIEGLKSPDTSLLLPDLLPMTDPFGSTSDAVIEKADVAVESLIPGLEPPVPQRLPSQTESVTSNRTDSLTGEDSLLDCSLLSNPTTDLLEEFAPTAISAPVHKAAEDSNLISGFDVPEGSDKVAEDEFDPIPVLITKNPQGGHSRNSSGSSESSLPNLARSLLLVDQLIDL
# TRKC = target: T25, TRKC (Homo sapiens, UniProt Q16288)
# T25 construct: purchased DiscoverX (KINOMEscan)
# T25 sequence (Q16288 32-839): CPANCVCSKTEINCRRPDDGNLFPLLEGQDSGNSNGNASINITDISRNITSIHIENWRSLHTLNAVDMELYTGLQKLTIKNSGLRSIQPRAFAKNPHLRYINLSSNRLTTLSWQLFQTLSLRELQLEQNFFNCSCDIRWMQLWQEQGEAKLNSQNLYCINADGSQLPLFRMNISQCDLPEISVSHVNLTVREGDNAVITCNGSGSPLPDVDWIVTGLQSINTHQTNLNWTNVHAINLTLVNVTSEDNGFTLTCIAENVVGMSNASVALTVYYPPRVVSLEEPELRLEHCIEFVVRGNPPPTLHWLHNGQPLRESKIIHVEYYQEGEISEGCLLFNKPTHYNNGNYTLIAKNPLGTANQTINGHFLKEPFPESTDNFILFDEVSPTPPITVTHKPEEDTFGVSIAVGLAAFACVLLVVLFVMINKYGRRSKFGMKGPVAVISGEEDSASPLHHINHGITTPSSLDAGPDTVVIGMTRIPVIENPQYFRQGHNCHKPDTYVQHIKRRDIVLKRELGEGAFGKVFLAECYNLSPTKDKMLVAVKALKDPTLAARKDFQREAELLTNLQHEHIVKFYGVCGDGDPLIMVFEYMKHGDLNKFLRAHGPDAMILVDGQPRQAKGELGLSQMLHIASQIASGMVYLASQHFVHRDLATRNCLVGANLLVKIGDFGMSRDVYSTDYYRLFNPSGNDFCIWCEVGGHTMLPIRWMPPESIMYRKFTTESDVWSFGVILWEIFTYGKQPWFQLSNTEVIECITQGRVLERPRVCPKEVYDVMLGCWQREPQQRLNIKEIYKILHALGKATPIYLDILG
# TYRO3 = target: T26, TYRO3 (Homo sapiens, UniProt Q06418)
# T26 construct: purchased DiscoverX (KINOMEscan)
# BMPR2 = target: T27, BMPR2 (Homo sapiens, UniProt Q13873)
# T27 construct: purchased DiscoverX (KINOMEscan)
# T27 sequence (Q13873 27-1038): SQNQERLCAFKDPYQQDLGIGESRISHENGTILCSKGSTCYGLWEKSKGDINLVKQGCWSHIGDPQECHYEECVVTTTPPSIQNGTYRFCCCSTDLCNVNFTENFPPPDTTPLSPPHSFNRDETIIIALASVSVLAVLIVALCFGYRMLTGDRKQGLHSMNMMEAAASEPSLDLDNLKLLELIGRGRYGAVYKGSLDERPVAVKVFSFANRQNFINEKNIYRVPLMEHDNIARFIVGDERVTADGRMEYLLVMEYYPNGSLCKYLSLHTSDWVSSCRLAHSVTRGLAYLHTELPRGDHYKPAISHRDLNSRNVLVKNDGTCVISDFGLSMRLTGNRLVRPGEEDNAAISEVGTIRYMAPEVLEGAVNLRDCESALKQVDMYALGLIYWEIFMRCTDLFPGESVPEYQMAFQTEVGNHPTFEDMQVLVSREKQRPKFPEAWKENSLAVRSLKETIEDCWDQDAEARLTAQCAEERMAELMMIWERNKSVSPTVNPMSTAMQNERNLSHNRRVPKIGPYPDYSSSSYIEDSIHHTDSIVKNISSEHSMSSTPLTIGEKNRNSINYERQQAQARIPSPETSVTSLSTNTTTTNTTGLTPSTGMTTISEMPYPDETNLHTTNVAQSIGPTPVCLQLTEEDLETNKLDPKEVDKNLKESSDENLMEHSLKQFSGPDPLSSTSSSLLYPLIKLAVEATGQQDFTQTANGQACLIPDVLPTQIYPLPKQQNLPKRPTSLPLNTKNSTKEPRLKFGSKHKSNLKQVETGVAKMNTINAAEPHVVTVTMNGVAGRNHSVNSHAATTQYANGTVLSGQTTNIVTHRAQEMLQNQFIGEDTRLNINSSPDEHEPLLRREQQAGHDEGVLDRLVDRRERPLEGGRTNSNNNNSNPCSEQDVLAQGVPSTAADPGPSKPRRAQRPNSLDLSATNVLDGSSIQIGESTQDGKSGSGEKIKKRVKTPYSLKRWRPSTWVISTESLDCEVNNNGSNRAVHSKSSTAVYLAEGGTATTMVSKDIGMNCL
# NLK = target: T28, NLK (Homo sapiens, UniProt Q9UBE8)
# T28 construct: purchased DiscoverX (KINOMEscan)
# NEK7 = target: T29, NEK7 (Homo sapiens, UniProt Q8TDX7)
# T29 construct: purchased DiscoverX (KINOMEscan)
# ACVRL1 = target: T30, ACVRL1 (Homo sapiens, UniProt P37023)
# T30 construct: purchased DiscoverX (KINOMEscan)
# TEC = target: T31, TEC (Homo sapiens, UniProt P42680)
# T31 construct: purchased DiscoverX (KINOMEscan)
# MELK = target: T32, MELK (Homo sapiens, UniProt Q14680)
# T32 construct: purchased DiscoverX (KINOMEscan)
# DYRK1B = DYRK1B (Homo sapiens, UniProt Q9Y463)
# Sequence of DYRK1B (Q9Y463 whole entry): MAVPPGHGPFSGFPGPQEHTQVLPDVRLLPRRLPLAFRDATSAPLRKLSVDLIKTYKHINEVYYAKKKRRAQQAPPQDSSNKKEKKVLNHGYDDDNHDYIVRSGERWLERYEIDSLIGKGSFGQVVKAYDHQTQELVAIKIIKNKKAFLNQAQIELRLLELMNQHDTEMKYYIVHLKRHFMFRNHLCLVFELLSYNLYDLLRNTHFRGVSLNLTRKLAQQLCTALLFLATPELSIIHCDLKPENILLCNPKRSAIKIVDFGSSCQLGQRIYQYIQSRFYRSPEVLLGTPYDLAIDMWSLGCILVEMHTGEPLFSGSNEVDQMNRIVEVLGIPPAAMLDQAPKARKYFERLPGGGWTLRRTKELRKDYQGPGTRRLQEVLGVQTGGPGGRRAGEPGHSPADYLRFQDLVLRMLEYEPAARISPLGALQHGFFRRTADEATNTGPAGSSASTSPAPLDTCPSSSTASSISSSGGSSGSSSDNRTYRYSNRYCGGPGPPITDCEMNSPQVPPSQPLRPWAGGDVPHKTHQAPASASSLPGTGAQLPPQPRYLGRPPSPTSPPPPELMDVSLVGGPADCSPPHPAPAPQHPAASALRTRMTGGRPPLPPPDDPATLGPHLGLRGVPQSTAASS
# CLK4 = target: T33, CLK4 (Homo sapiens, UniProt Q9HAZ1)
# T33 construct: purchased DiscoverX (KINOMEscan)
# T33 sequence (Q9HAZ1 whole entry): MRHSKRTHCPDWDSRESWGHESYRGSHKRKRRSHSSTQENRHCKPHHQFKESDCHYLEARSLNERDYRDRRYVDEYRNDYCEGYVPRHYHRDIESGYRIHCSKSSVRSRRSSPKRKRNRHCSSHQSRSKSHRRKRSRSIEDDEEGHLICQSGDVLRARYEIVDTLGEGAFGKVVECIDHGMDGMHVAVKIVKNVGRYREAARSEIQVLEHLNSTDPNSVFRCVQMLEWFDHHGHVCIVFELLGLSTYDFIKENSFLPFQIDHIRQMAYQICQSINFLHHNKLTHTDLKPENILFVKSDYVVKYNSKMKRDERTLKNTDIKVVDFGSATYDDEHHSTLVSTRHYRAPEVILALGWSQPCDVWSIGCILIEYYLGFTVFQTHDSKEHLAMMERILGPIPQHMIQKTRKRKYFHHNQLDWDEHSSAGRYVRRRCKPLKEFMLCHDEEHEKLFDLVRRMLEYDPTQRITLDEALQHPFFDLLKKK
# HIPK3 = target: T34, HIPK3 (Homo sapiens, UniProt Q9H422)
# T34 construct: purchased DiscoverX (KINOMEscan)
# BMX = target: T35, BMX (Homo sapiens, UniProt P51813)
# T35 construct: purchased DiscoverX (KINOMEscan)
structure (smiles),measurement,setting,value
COc1cc(/C=C2\N=C(N)NC2=O)ccc1O [Polyandrocarpamine A],Score,DRAK2,51
same,Score,MST3,100
same,Score,CDK2,91
same,Score,SYK,100
same,Score,BRAF(V600E),96
same,Score,LYN,89
same,Score,CTK,100
same,Score,CAMK1,100
same,Score,MAST1,100
same,Score,[1],100
same,Score,MAK,91
same,Score,EGFR(E746-A750del),100
same,Score,CSNK1G3,84
same,Score,ERN1,100
same,Score,MTOR,84
same,Score,DMPK,100
same,Score,"GCN2(Kin.Dom.2,S808G)",90
same,Score,EPHA8,100
same,Score,[2],100
same,Score,DMPK2,99
same,Score,ACVR2A,100
same,Score,LRRK2(G2019S),100
same,Score,ADCK3,100
same,Score,AAK1,100
same,Score,TRKC,82
same,Score,TYRO3,100
same,Score,BMPR2,95
same,Score,NLK,100
same,Score,NEK7,100
same,Score,ACVRL1,100
same,Score,TEC,98
same,Score,MELK,100
same,Score,DYRK1B,25
same,Score,CLK4,30
same,Score,HIPK3,19
same,Score,BMX,100
